This note sets out measurements from PubChem BioAssay AID2305 (GlaxoSmithKline (GSK), 2010).

The structures appear in SMILES notation. “And” between values parts separate entries of the source, which are not always exact repeats. Identical values can stand only once.

The experiment deals with P. falciparum 3D7 growth, pLDH absorbance. In words: blood-stage malaria parasite growth potency – strain 3D7, dose response (AID 2305).
As to `O=C(C1CCN(C(c2ccccc2)c2ccc(Cl)c(Cl)c2)CC1)N1CC=CC1` (stereo not given), the IC50 (commonly the midpoint of a concentration-inhibition curve) is 720 nM.

With `O=C(Nc1cccc(CN2CCCN(Cc3ccc(O)cc3)CC2)c1)c1cccc(F)c1`, the IC50 came to 900 nM.

On to `COc1ccc(N2CCN(CCCOc3ccc(NC(=O)c4cc(Cl)cc(Cl)c4)cc3)CC2)c(OC)c1`, for which the half-inhibitory concentration (IC50) came out at 900 nM.

Compound `Nc1c(Cl)cc(C(O)CNCCCCCOCCc2ccccc2)cc1C(F)(F)F` (stereo not given) yielded an IC50 of 980 nM.

Regarding `COc1cc(Nc2nccc(N3CCC(NC(=O)c4cccc(NC(C)=O)c4)C3)n2)cc(OC)c1OC` (stereo not given), the concentration for half-maximal inhibition (IC50) was found to be 830 nM.

`COc1ccccc1N1CCN(CCCCNC(=O)c2ccc(NC(=O)c3ccc(OC(F)(F)F)cc3)cc2)CC1`: the IC50 was found to be 660 nM.

As for `CC1CCC(C(C)C)C(OC(=O)CSc2nnc3c(n2)[nH]c2ccccc23)C1` (stereo not given), the concentration for half-maximal inhibition (IC50) was found to be 930 nM.

In turn, `CC(C)(Oc1c(C2CCN(CCCCNC(=O)c3ccc(-c4ccc(C#N)cc4)cc3)CC2)ccc2c1CCCC2)C(N)=O` yielded an IC50 of 700 nM.

As for `CC(C)CCNC(=O)C1Cc2c([nH]c3cc(Br)ccc23)C2(CCN(CCc3ccccc3)CC2)N1` (stereo not given), the concentration for half-maximal inhibition (IC50) worked out at 910 nM.

As for `CN1CCN(c2cc(NC(=O)c3ccc(-c4ccc(Cl)cc4)cc3)ccc2Cl)CC1`, the IC50 came to 610 nM.

Regarding `COc1ccc2nccc([C@@H](O)CN3CC[C@H](NCc4nc5c(cc4Cl)SCC(=O)N5)[C@H](F)C3)c2c1`, the concentration for half-maximal inhibition (IC50) was 760 nM and 510 nM.

With `COc1cccc2c(NN=Cc3ccccc3Cl)cc(C)nc12`, the 50% inhibitory concentration (IC50) worked out at 210 nM.

Regarding `COc1ccc(-c2ccnc(-c3cccc(-c4ccccn4)n3)c2)cc1`, the IC50 was 820 nM.

Take `O=C(Cc1cccc(Cl)c1)Nc1cccc(-c2c[nH]c3nc(Nc4ccccc4)ncc23)c1`: the half-inhibitory concentration (IC50) was determined as 680 nM.

Regarding `COc1cccc(-c2ccc(O)c(CNCCc3cccc(F)c3)c2)n1`, the IC50 came to 910 nM.

With `Cc1cccc2[nH]c(-c3ccc(-c4cccc(CN5CCC(N)C5)c4)s3)nc12` (stereo not given), the IC50 worked out at 770 nM.

Take `COc1cc(CNC[C@@H](O)[C@H](Cc2ccccc2)NC(=O)c2cc(C3CCCC3)cc(N3CCCC3=O)c2)cc(OC)c1`: the IC50 was found to be 220 nM.

Consider `O=C(/C=C/c1ccc(Cl)c(Cl)c1)NCCCCN1CCCN(C(=O)Nc2cc(Cl)cc(Cl)c2)CC1`, for which the IC50 is 950 nM.

`CC(C)Cn1c2ccccc2c2nc3nc(N)nc(N)c3nc21`: the IC50 is 720 nM.

Regarding `Cc1c(NC(=O)COc2ccc(Cl)cc2C(=O)c2cc(F)cc(C(F)(F)F)c2)ccc2ncsc12`, the IC50 turned out to be 1020 nM.

`Cc1nnc2sc(-c3cccc(NC(=O)c4ccc(N5CCCCC5)c([N+](=O)[O-])c4)c3)nn12` showed an IC50 of 1300 nM.

On to `O=C(Nc1ccc2c(c1)CCN2C1CCN(Cc2cccc(C(F)(F)F)c2)C1)c1ccco1` (stereo not given), for which the half-maximal inhibitory concentration (IC50) stood at 560 nM.

Compound `CCCCc1cc(NCC)nc(Nc2cccc(OC)c2)n1` had an IC50 of 920 nM.

`CCOc1ccc2c(NN=Cc3ccc(OC)c(OC)c3)cc(C)nc2c1` yielded a half-maximal inhibitory concentration (IC50) of 700 nM.

Turning to `COc1ccc2nccc([C@@H](O)CN3CCC(NCc4nc5c(F)cccc5[nH]4)CC3)c2c1`, the half-inhibitory concentration (IC50) came out at 470 nM.

For the compound `O=C(CSc1nccn1C1CCCCC1)Nc1cc(C(F)(F)F)ccc1Cl`, the IC50 was 400 nM.

As for `COc1ccc(NC(=O)/C=C/c2ccc(-c3ccccc3)cc2)cc1N1CCN(C)CC1`, the half-inhibitory concentration (IC50) was 910 nM.

As for `N#CCCN1CCN(Cc2cccc(-c3ccc(-c4nc5ccccc5[nH]4)s3)c2)CC1`, the IC50 is 760 nM.

Compound `O=C(Nc1ccc(-c2ccccc2)c(OCCN2CCNCC2)c1)c1ccc(-c2ccc(Cl)cc2)cc1` came in with an IC50 of 780 nM.

`CS(=O)(=O)CCNCc1cccc(-c2cc3nccc(Nc4ccc(Oc5ccccc5)cc4)c3cc2Cl)c1` registered an IC50 of 620 nM.

In the case of `COc1cccc(Nc2nc(C)cc(NCc3ccc(-c4c(C)noc4C)cc3)n2)c1`, the concentration for half-maximal inhibition (IC50) turned out to be 880 nM.

On to `CC1(CCCCN2CCC(c3c[nH]c4cnccc34)CC2)C(=O)Nc2cccc(Cl)c21` (stereo not given), for which the IC50 stood at 870 nM.

Consider `Cc1noc(C)c1-c1cccc(CNCc2ccc(-c3ccc(-c4nc5ccc(C(F)(F)F)cc5[nH]4)s3)cc2)c1`, for which the IC50 is 180 nM.

As for `CC[C@H]1CN2CC[C@H]1C[C@H]2[C@H](O)c1cc(-c2ccc3ccccc3c2)nc2ccc(OC)cc12`, the IC50 is 100 nM.

`CCCCCCN1CCN(Cc2cccc(NC(=O)c3cccc(OCC)c3)c2)CC1` had an IC50 of 1110 nM.

`COc1cc2nccc(Nc3ccc(Oc4ccccc4)cc3)c2cc1OC` showed a concentration for half-maximal inhibition (IC50) of 680 nM.

As for `CS(=O)(=O)CCNCc1cccc(-c2cc3c(Nc4ccc5c(cnn5Cc5ccccc5)c4)ncnc3s2)c1`, the IC50 was determined as 550 nM.

For the compound `COc1ccc(-c2cnc3[nH]cc(-c4ccc(C(=O)O)cc4)c3c2)cn1`, the concentration for half-maximal inhibition (IC50) was found to be 540 nM.

`CCc1nnc2sc(-c3cccc(NC(=O)c4ccc(OC)c(Cl)c4)c3)nn12` yielded a half-inhibitory concentration (IC50) of 1140 nM.

In turn, `COc1ccc(Cl)cc1NC(=O)C(C)N1CCN(S(=O)(=O)c2ccccc2F)CC1` (stereo not given) returned an IC50 of 670 nM.

In turn, `CCN(CC)CCN(Cc1ccc(-c2ccc(C(F)(F)F)cc2)cc1)C(=O)Cn1c(CCc2cccc(F)c2F)nc(=O)c2cc(C)ccc21` yielded an IC50 of 940 nM.

`Fc1ccc(-c2cc3ncnc(N4CCN(CCN5CCCC5)CC4)c3s2)cc1` had a concentration for half-maximal inhibition (IC50) of 740 nM.

Compound `Oc1cccc(C2CCCN(Cc3cccc4cc[nH]c34)C2)c1` (stereo not given) showed an IC50 of 510 nM.

As for `CCN(CC)CCN(Cc1ccc(-c2ccc(C#N)cc2)cc1)C(=O)Cn1c(CCc2cccc(F)c2F)nc(=O)c2ccccc21`, the concentration for half-maximal inhibition (IC50) was 10 nM.

As for `CCC(C)NC(=O)Nc1ccc(-c2cccc(-c3nc4ccccc4[nH]3)c2)cc1` (stereo not given), the half-maximal inhibitory concentration (IC50) worked out at 820 nM.

With `Cc1ccc(C(=O)Nc2cccc([N+](=O)[O-])c2)cc1S(=O)(=O)N1CC(C)CC(C)C1` (stereo not given), the IC50 came to 790 nM.

On to `C1=C(c2c[nH]c3ccccc23)CCN(Cc2ccccc2)C1`, for which the half-maximal inhibitory concentration (IC50) was 1040 nM.

`O=C(NC1CCCC1)c1ccc(N2CCC(NCc3cccc(C(F)(F)F)c3)CC2)cc1` showed an IC50 of 1330 nM.

`CCCCc1ccc2nc(NC(=O)OC)[nH]c2c1` showed a half-maximal inhibitory concentration (IC50) of 680 nM.

With `FC(F)(F)c1ccc2nc(-c3ccc(-c4ccc(CNCc5ccccc5)cc4)cc3)[nH]c2c1`, the IC50 was determined as 140 nM.

In the case of `CCc1c(C)nc(-n2nc(C)cc2NC(=O)CC(c2ccccc2)c2ccccc2)[nH]c1=O`, the IC50 was found to be 650 nM.

For the compound `COc1ccc(CNC2CCCC2)cc1-c1ccc(S(=O)(=O)NCCN2CCCC2)s1`, the half-inhibitory concentration (IC50) stood at 800 nM.

Compound `COc1ccc(Cl)cc1-c1nc(C(=O)NCCN2CCCCC2)c(C)s1` yielded an IC50 of 940 nM.

`COc1c(C2CCN(CCCCNC(=O)c3ccc(-c4ccc(Cl)cc4)c(OCCN(C)C)c3)CC2)ccc2c1CCCC2` registered an IC50 of 190 nM.

For `CCCc1ccccc1Nc1nc(C)cc(N(CC)CCCN2CCCCC2)n1`, the half-inhibitory concentration (IC50) was determined as 620 nM.

In turn, `O=C(Nc1cccc(-c2nn3ncccc3c2-c2ccnc(Nc3cccc(C(F)(F)F)c3)n2)c1)c1c(F)cccc1F` displayed a half-inhibitory concentration (IC50) of 650 nM.

`COc1ccc2[nH]c(C(=O)Nc3cccc(-c4ccc(CN(C)C)cc4)c3)cc2c1`: the half-maximal inhibitory concentration (IC50) was found to be 910 nM.

For the compound `O=C(/C=C/c1ccc(Cl)c(Cl)c1)NCCCCCN1CC[C@H](NC(=O)/C=C/c2ccccc2)C1`, the IC50 is 1000 nM.

As for `Oc1ccc2[nH]cc(C3CCN(CCCCCCCCCN4CCC(c5c[nH]c6ccc(O)cc56)CC4)CC3)c2c1`, the IC50 came out at 310 nM.

`CC(C)CNCc1ccc(-c2ccc(CN(CCCN3CCN(C)CC3)C(=O)CCC3CCCC3)cc2)cc1` came in with a concentration for half-maximal inhibition (IC50) of 1060 nM.

The compound `O=C(/C=C/c1ccc(Cl)c(Cl)c1)NCCCCCN1CCCN(C(=O)Nc2cc(Cl)cc(Cl)c2)CC1` had an IC50 of 790 nM.

For the compound `NC(N)=Nc1nc(-c2ccc(NCc3ccc(CNc4cccc(-c5csc(N=C(N)N)n5)c4)cc3)cc2)cs1`, the IC50 is 310 nM.

As to `COc1c(C2CCN(CCCCNC(=O)c3cc(-c4ccc(Cl)cc4)oc3C)CC2)ccc2c1CCCC2`, the IC50 is 880 nM.

In turn, `CC(C)N1CCN(C(=O)c2ccc(CN(C)CCCN3CCN(c4cccc(Cl)c4Cl)CC3)s2)CC1` had an IC50 of 990 nM.

As for `O=C(NC(NC(=S)Nc1ccc([N+](=O)[O-])cc1)C(Cl)(Cl)Cl)c1cccc(Cl)c1` (stereo not given), the half-maximal inhibitory concentration (IC50) amounted to 730 nM.

`COc1cc2c(cc1C(F)(F)F)N(C(=O)Nc1cc(-c3ccncc3)cc(-c3cccnc3)c1)CC2` registered an IC50 of 620 nM.

`COc1ccc(CSC2CCCCC23NC(=S)NC3=S)cc1` (stereo not given) yielded an IC50 of 850 nM.

As to `Oc1cc2ccccc2cc1CNC1CCCCC1`, the IC50 amounted to 590 nM.

`CCOc1cc(C(=O)N[C@@H](Cc2ccccc2)[C@H](O)CNC(C)(C)c2cccc(OC)c2)cc(N2CCCS2(=O)=O)c1` had an IC50 of 220 nM.

As to `NC(=O)c1ccsc1NC(=O)CNC(c1ccc(F)cc1)c1cccs1` (stereo not given), the IC50 came to 950 nM.

`O=C(c1cc(C(=O)NCc2ccc(Cl)cc2)c(=O)n(Cc2ccc(Cl)cc2)c1)c1cc(F)ccc1O` showed a half-maximal inhibitory concentration (IC50) of 950 nM.

In turn, `CC(C)NCc1ccc(-c2cccc(NC(=O)c3ccc(F)cc3)c2)cc1` gave an IC50 of 880 nM.

On to `CCCCCCCc1[nH]c2ccccc2c(=O)c1C`, for which the half-inhibitory concentration (IC50) stood at 510 nM.

In the case of `O=C(/C=C/c1ccc(Cl)c(Cl)c1)N1CCC(CN2CCC(Cc3cc4ccccc4[nH]3)CC2)CC1`, the IC50 was determined as 630 nM.

`O=C(/C=C/c1ccc(F)cc1)NC1CCC(CCN2CCc3ccc(-n4cccn4)cc3CC2)CC1` (stereo not given) registered a concentration for half-maximal inhibition (IC50) of 1440 nM.

As to `O=C(/C=C/c1ccc(Cl)c(Cl)c1)NCCCCCN1CCCN(C(=O)Nc2ccc(F)c(F)c2)CC1`, the IC50 is 800 nM.

For the compound `O=C(NCCN1CCC(c2ccncc2)CC1)c1ccc(Nc2nccc(Nc3ccc(Oc4ccccc4)cc3)n2)cc1`, the concentration for half-maximal inhibition (IC50) worked out at 720 nM.

Compound `Cc1cccc2[nH]c(-c3ccc(-c4ccc(CN5CCCC(N)C5)cc4)s3)nc12` (stereo not given) yielded an IC50 of 380 nM.

With `CCc1nonc1NC(=O)c1oc2c(C)c(C)ccc2c1C`, the IC50 is 880 nM.

Take `COc1ccc2nc3cc(Cl)ccc3c(Nc3ccc(O)c(CN4CC5CCC(CC5)C4)c3)c2c1`: the concentration for half-maximal inhibition (IC50) is 170 nM.

Compound `Brc1cc2c(cc1C=NNc1nc(Nc3ccccc3)nc(Nc3ccccc3)n1)OCO2` yielded an IC50 of 800 nM.

Turning to `CC(=O)Nc1ccc2[nH]cc(C3CCN(CC4CCC(NC(=O)/C=C/c5ccccc5Cl)CC4)CC3)c2n1` (stereo not given), the IC50 came to 360 nM.

In turn, `O=C1C(c2ccccc2)=C(Nc2ccc(OC(F)(F)F)cc2)c2ccccc21` came in with an IC50 of 110 nM.

For the compound `O=C(NCCCCCN1CCCN(C(=O)Nc2ccc(Cl)c(C(F)(F)F)c2)CC1)[C@@H]1C[C@H]1c1ccc(Cl)c(Cl)c1`, the concentration for half-maximal inhibition (IC50) came to 850 nM.

As for `CN(C)c1ccc(-c2csc(C(=O)NC3CCN(Cc4ccc(C(C)(C)C)cc4)C3)c2)cc1` (stereo not given), the IC50 turned out to be 950 nM.
